According to PMC10992699, “Comparative structure activity and target exploration of 1,2-diphenylethynes in Haemonchus contortus and Caenorhabditis elegans” (International Journal for Parasitology: Drugs and Drug …, 2024):

Legend:
[1] = system: adult females of Haemonchus contortus; test: Motility of adult female H. contortus in vitro; format: cell-based; settings: 40 μM; 24 h of incubation; normalised to negative control
Description: Adult H. contortus were collected from the abomasa of sheep infected for 10 weeks, washed extensively with phosphate-buffered saline (PBS, pH 7.4) and subsequently in RPMI 1640 media supplemented with final concentrations of 2 mM L-glutamine, 100 IU/mL of penicillin, 100 μg/mL of streptomycin and 0.25 μg/mL of amphotericin B (Thermo Fisher Scientific, Scoresby, VIC, Australia; this supplemented RPMI was designated RPMI*). Female and male worms were collected and separated immediately prior to compound testing.
The activity of UMW-9729 and six derivatives (12, 14, 15, 16, 18 and 25) was assessed on adult female specimens of H. contortus in an established assay ([Taki et al., 2020]). The compound was added in triplicate to the wells of a 24-well plate (cat. no. 3524; Corning, USA) at a concentration of 40 μM in 500 μL of RPMI* (RPMI supplemented with final concentrations of 2 mM L-glutamine, 100 IU/mL of penicillin, 100 μg/mL of streptomycin and 0.25 μg/mL of amphotericin B; Thermo Fisher Scientific, Scoresby, VIC, Australia). Two positive-control compounds, monepantel and moxidectin, and a negative control containing 1 % (v/v) DMSO only, were included in triplicates on the same plate. Three adult females were added to each of the triplicate wells containing either the test compound or the controls and placed in a CO2 incubator (10 % (v/v) CO2, 40 °C, >90 % relative humidity) for 1 day. A video recording (30 s) of each well was taken at 3 h, 6 h, 12 h and 24 h during the total incubation period to assess the reduction in worm motility, which was scored as 3 (“good”), 2 (“low”), 1 (“very low”) or 0 (“no movement”; cf. [Taki et al., 2020]). For each test or control compound, the motility scores for each of the triplicate wells were calculated, normalised with reference to the negative control (100 % motility) and recorded as a percentage.

C. elegans young adults = test: C. elegans young adult motility dose-response assay; format: cell-based, Caenorhabditis elegans; settings: for IC50: Caenorhabditis elegans, 40 h, read-out: Worm motility IC50 ± SD, C. elegans young adults
Description: The eggs were then washed five times with 15 mL of sterile M9 buffer (centrifugation at 500×g, 2 min). […] were collected from plates and washed twice with sterile M9 buffer by centrifugation (500×g, 2 min) to remove E. coli OP50, and then resuspended to a concentration of 100 larvae per 50 μL in sterile (autoclaved) LB*. The dose-response assay for C. elegans followed a well-established protocol ([Taki et al., 2021a]) and was employed to evaluate the potency of hit compounds against this nematode. […] Two compounds, monepantel (ZolvixTM; Elanco, Australia) and moxidectin ([…], France) were used as positive controls and prepared in the same manner as the test compounds. […] The test compounds and positive control compounds were arrayed in triplicate across individual flat-bottom 96-well microplates (cat. no. 3596; Corning, Corning, NY, USA), with six wells on each plate containing the negative control. Added to each well were 100 C. elegans in 50 μL of LB* to give a final volume of 100 μL. Plates were then placed in an incubator ([…], model no. IMP180, Thermo Fisher Scientific, USA) at 20 °C for 40 h. […] Over 15 min, disturbance of an infrared beam in individual wells was recorded as an 'activity count'. Raw 'activity counts' for each well were normalised to the negative controls. The compound concentrations were log10-transformed and fitted using a variable slope four-parameter equation, using the ordinary least squares fit model, employing the program Prism (v.9.1.0 GraphPad Software, San Diego, CA, USA).

H. contortus xL3s = test: H. contortus xL3 motility dose-response assay; format: cell-based, Haemonchus contortus; settings: xL3s, 90 h incubation (table title), three independent assays in triplicate; for IC50: Haemonchus contortus, 90 h, read-out: Worm motility IC50 ± SD, H. contortus xL3s
Description: Immediately prior to use in assays, H. contortus L3s were exsheathed via exposure to 0.15 % (v/v) sodium hypochlorite for 20 min at 38 °C ([Preston et al., 2015]), achieving an exsheathment rate of 90 %. The larvae were then immediately washed five times with 50 mL of sterile physiological saline (pH 7.0) by centrifugation at 2000×g (5 min) and resuspended (at a concentration of 300 xL3s per 50 μL) in sterile (autoclaved) lysogeny broth (LB; cf. [Bertani, 1951]; [Taki et al., 2021b]), supplemented with final concentrations of 100 IU/mL of penicillin, 100 μg/mL of streptomycin and 0.25 μg/mL of amphotericin B (Fungizone®, cat. No. 15240-062, Gibco, Thermo Fisher Scientific, Waltham, MA, USA); this supplemented LB was designated LB*.
The dose-response assay for H. contortus followed a well-established protocol ([Taki et al., 2021b]); it was employed to evaluate the potency of hit compounds against this nematode. Test compounds were assessed individually for an effect on the motility of xL3s (10-point, 2-fold serial dilution in LB*, 40 μM–[…]). […] A solution of LB* was used as a negative control. The test compounds and positive control compounds (monepantel and moxidectin) were arrayed in triplicate across individual flat-bottom 96-well microplates, with six wells on each plate containing the negative control. Added to each well were 300 xL3s of H. contortus in 50 μL of LB* to give a final volume of 100 μL. Plates were then placed in a CO2 incubator (10 % (v/v) CO2, 38 °C, >90 % humidity; Forma, model no. 311, Thermo Fisher Scientific, USA). […] Over a period of 15 min, disturbance of an infrared beam in individual wells was recorded as an ‘activity count’. Raw ‘activity counts’ for individual wells were normalised to the negative-controls. The compound concentrations were log10-transformed and fitted using a variable slope four-parameter equation, using the ordinary least squares fit model, employing Prism (v.9.1.0 GraphPad Software, San Diego, CA, USA). Larval development was established at 168 h of incubation with compound, as described previously ([Preston et al., 2015]). The phenotypes of larvae were examined using a microscope ([Preston et al., 2015]) and recorded.

[2] = young adults, 40 h incubation, three independent assays in triplicate

Row | Structure (SMILES) | reduction of worm motility, adult females of H. contortus [1] | IC50 (C. elegans young adults; [2]) | Worm motility IC50 ± SD, C. elegans young adults (C. elegans young adults; [2]) | IC50 (H. contortus xL3s) | Worm motility IC50 ± SD, H. contortus xL3s (H. contortus xL3s) | fold increased activity compared to UMW-9729, C. elegans (C. elegans young adults; ratio of motility IC50 to parent UMW-9729)
1 | C(#Cc1cccnc1)c1ccc(-c2ccn[nH]2)cc1 [Compound 16] | 15% | > 40 µM | loss of activity | 6.8 ± 0.1 µM | equipotent | –
2 | Clc1cccc(C#Cc2ccc(-c3ccn[nH]3)cc2)c1 [Compound 15] | 23% | 8.2 ± 7.8 µM | – | > 40 µM | loss of activity | ~2 fold
